The target in one experiment is T1, HDAC3 (Homo sapiens, UniProt O15379).
T1 construct: endogenous in cells; host or cells: Kelly cells
The experiment in a line: Quantitative LC-MS proteomics of relative protein abundance in treated Kelly cells. Conditions: 1 μM compound, 5 hr, compared to DMSO control. The experiment is classed as cell-based. As for the experimental part:
Kelly cells were treated with DMSO or 1 μM of compound 2 or 3 for 5 hr and cells were harvested by centrifugation at 4° C. before snap freezing in liquid nitrogen. Cell lysis was performed by the addition of Urea buffer (8 M Urea, 50 mM NaCl, 50 mM 4-(2-hydroxyethyl)-1-piperazineethanesulfonic acid (EPPS) pH 8.5, Protease and Phosphatase inhibitors) followed by manual homogenization by 20 passes through a 21-gauge (1.25 in. long) needle. Lysate was clarified by centrifugation and protein quantified using bradford (Bio-Rad) assay. 50 μg of protein for each sample was reduced, alkylated and precipitated using methanol/chloroform as described in Donovan et al., eLife 7: e38430 (2018). The resulting precipitated protein was resuspended in 4 M Urea, 50 mM HEPES pH 7.4, buffer for solubilization, followed by dilution to 1 M urea with the addition of 200 mM EPPS, pH 8. Proteins were digested for 12 hours at room temperature with LysC (1:50 ratio), followed by dilution to 0.5 M urea and a second digestion step was performed by addition of trypsin (1:50 ratio) for 6 hours at 37° C. […]
The diaPASEF raw file processing and controlling peptide and protein level false discovery rates, assembling proteins from peptides, and protein quantification from peptides was performed using library free analysis in DIA-NN 1.8 (Demichev et al., Nature Methods 17:41-44 (2020)). […]

Another experiment has as its target T2, VHL (Homo sapiens, UniProt P40337).
T2 construct: Cells stably expressing the BRD4BD2-GFP with mCherry reporter were seeded; endogenous in cells; host or cells: unnamed cells stably expressing the BRD4BD2-GFP with mCherry reporter
Description: Cellular VHL engagement assay (BRD4BD2-GFP with mCherry reporter cells). It counts as cell-based. Conditions: cells stably expressing BRD4BD2-GFP with mCherry reporter, co-treated with 250 nM BRD4 degrader, 5 h. How it is done:
Cells stably expressing the BRD4BD2-GFP with mCherry reporter were seeded at a density of 1000-4000 cells/well in 384-well plates with 50 μL per well of FluoroBrite™ DMEM media (Thermo Fisher Scientific™, A18967) supplemented with 2% FBS a day before compound treatment. Compounds 1 and 2, and 250 nM 1 ((2S,4R)-1-(2R)-2-acetamido-3-[[6-[2-[(6S)-4-(4-chlorophenyl)-2,3,9-trimethyl-6H-thieno[3,2-f][1,2,4]triazolo[4,3-a][1,4]diazepin-6-yl]acetamido]hexyl]thio]-3-methylbutanoyl]-4-hydroxy-N-[4-(4-methylthiazol-5-yl)benzyl) pyrrolidinine-2-carboxamide) were dispensed using a D300e Digital Dispenser (HP), normalized to 0.5% DMSO, and incubated with the cells for 5 h. The assay plate was imaged immediately using an Acumen® High Content Imager (TTP Labtech) with 488 nm and 561 nm lasers in a 2 μm×1 μm grid per well format. The resulting images were analyzed using CellProfiler™.
A series of image analysis steps (an ‘image analysis pipeline’) was constructed. […] A background illumination function was calculated for both red and green channels of each well individually and subtracted to correct for illumination variations across the 384-well plate from various sources of error. […] The fraction of GFP-positive cells/mCherry-positive cells in each well was then calculated, and the green and red images were rescaled for visualization. […]

T1 sequence (O15379 whole entry): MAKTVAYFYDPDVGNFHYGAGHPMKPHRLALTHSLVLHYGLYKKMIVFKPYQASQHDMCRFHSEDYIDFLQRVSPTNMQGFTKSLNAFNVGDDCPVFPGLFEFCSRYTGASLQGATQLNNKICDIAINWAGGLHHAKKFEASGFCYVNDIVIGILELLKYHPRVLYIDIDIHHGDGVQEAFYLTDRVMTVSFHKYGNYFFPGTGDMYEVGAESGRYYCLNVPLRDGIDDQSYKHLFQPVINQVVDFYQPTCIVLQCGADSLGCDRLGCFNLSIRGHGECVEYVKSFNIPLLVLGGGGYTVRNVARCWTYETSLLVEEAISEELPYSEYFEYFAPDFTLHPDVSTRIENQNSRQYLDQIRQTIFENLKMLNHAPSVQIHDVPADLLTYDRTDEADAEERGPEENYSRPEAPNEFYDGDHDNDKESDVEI
T1 sequence (Q9Y618 389-480 partner limits assumed): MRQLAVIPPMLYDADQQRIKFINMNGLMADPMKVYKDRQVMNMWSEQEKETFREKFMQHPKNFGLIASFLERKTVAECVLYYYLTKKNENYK
T2 sequence (P40337 whole entry, species assumed): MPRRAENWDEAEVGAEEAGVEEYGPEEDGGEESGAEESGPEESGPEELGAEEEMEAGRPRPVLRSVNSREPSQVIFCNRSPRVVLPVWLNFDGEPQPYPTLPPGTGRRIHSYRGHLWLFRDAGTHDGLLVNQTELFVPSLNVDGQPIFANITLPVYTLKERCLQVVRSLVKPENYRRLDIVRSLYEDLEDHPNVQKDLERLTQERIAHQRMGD

Regarding `CCCNNC(=O)/C=C/c1ccc(CN(CCCCCOc2cc(-c3scnc3C)ccc2CNC(=O)[C@@H]2C[C@@H](O)CN2C(=O)[C@@H](NC(=O)C2(F)CC2)C(C)(C)C)CCc2c[nH]c3ccccc23)cc1` [Compound 3, (2S,4R)—N-(2-((5-((2-(1H-indol-3-yl)ethyl) (4-((E)-3-oxo-3-(2-propylhydrazineyl)prop-1-en-1-yl)benzyl)amino)pentyl)oxy)-4-(4-methylthiazol-5-yl)benzyl)-1-((S)-2-(1-fluorocyclopropane-1-carboxamido)-3,3-dimethylbutanoyl)-4-hydroxypyrrolidine-2-carboxamide], the “relative change in HDAC3 protein abundance (degradation and selectivity)” value at HDAC3 was “significant and selective reduction in HDAC3 protein levels”. With `CCCNNC(=O)/C=C/c1ccc(CN(CCOCCOCCC(=O)N[C@H](C(=O)N2C[C@H](O)C[C@H]2C(=O)N[C@@H](C)c2ccc(-c3scnc3C)cc2)C(C)(C)C)CCc2c[nH]c3ccccc23)cc1` [Compound 2, (2S,4R)-1-((S)-14-(tert-butyl)-1-(1H-indol-3-yl)-12-oxo-3-(4-((E)-3-oxo-3-(2-propylhydrazineyl)prop-1-en-1-yl)benzyl)-6,9-dioxa-3,13-diazapentadecan-15-oyl)-4-hydroxy-N—((S)-1-(4-(4-methylthiazol-5-yl)phenyl)ethyl) pyrrolidine-2-carboxamide], the IC50 (commonly the concentration needed to halve the response being measured) on VHL is 6.78 µM. In addition, at HDAC3, the “relative change in HDAC3 protein abundance (degradation and selectivity)” value is “significant and selective reduction in HDAC3 protein levels”. As to `CCCNNC(=O)/C=C/c1ccc(CN(CCOCCC(=O)N[C@H](C(=O)N2C[C@H](O)C[C@H]2C(=O)N[C@@H](C)c2ccc(-c3scnc3C)cc2)C(C)(C)C)CCc2c[nH]c3ccccc23)cc1` [Compound 1, (2S,4R)-1-((S)-2-(3-(2-((2-(1H-indol-3-yl)ethyl) (4-((E)-3-oxo-3-(2-propylhydrazineyl)prop-1-en-1-yl)benzyl)amino)ethoxy)propanamido)-3,3-dimethylbutanoyl)-4-hydroxy-N—((S)-1-(4-(4-methylthiazol-5-yl)phenyl)ethyl) pyrrolidine-2-carboxamide], at VHL, the IC50 is 16.8 µM.

The record behind these values is patent US20260256920A1, “SELECTIVE HISTONE DEACETYLASE 3 (HDAC3) DERADERS AND METHODS OF USE THEREOF” (Dana-Farber Cancer Institute, Inc., priority 2022, published 2026).
